How the values were obtained:
Conditions in all cases: exposure time: 72 h
[1] = tested on: E13 (patient-derived glioblastoma stem cells of classical subtype); experiment: surviving fraction (nuclei count normalised to DMSO); higher = more cells surviving (less toxic)
[2] = tested on: E21 (patient-derived glioblastoma stem cells of mesenchymal subtype); experiment: as above
[3] = tested on: E28 (patient-derived glioblastoma stem cells of classical subtype); experiment: as above
[4] = tested on: E31 (patient-derived glioblastoma stem cells of proneural subtype); experiment: as above
[5] = tested on: E34 (patient-derived glioblastoma stem cells of proneural subtype); experiment: as above
[6] = tested on: E57 (patient-derived glioblastoma stem cells of mesenchymal subtype); experiment: as above
[7] = tested on: FT3469 (normal neural stem cell line); experiment: as above
[8] = tested on: E13; experiment: phenotypic distance (Euclidean, principal components) from DMSO controls (arbitrary units); higher = stronger morphological change
[9] = tested on: E21; experiment: as above
[10] = tested on: E28; experiment: as above
[11] = tested on: E31; experiment: as above
[12] = tested on: E34; experiment: as above
[13] = tested on: E57; experiment: as above
[14] = tested on: FT3469; experiment: as above
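Wherever phenotypic distance (Euclidean, principal components) from DMSO controls is given: cell Painting imaging in 384-well plates, CellProfiler features reduced to at least 20 principal components, Euclidean distance versus same-plate DMSO vehicle wells (0.1% v/v), median over six images per well.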
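Wherever surviving fraction (nuclei count normalised to DMSO) is given: nuclei counted by high-content imaging of Hoechst-stained cells in laminin-coated 384-well plates, relative to 0.1% DMSO vehicle wells, with staurosporine as cell-death control.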

c1ccc2c(c1)[I+]c1ccccc1-2 [Diphenyleneiodonium chloride]
Conditions | phenotypic distance | surviving fraction
[1], 4.1 nM | – | 0.616
[1], 12.3 nM | – | 0.605
[1], 37 nM | – | 0.464
[1], 111.1 nM | – | 0.47
[1], 333.3 nM | – | 0.417
[1], 1000 nM | – | 0.331
[1], 3000 nM | – | 0.251
[2], 4.1 nM | – | 0.827
[2], 12.3 nM | – | 0.767
[2], 37 nM | – | 0.672
[2], 111.1 nM | – | 0.559
[2], 333.3 nM | – | 0.548
[2], 1000 nM | – | 0.525
[2], 3000 nM | – | 0.401
[3], 4.1 nM | – | 0.654
[3], 12.3 nM | – | 0.916
[3], 37 nM | – | 0.853
[3], 111.1 nM | – | 0.524
[3], 333.3 nM | – | 0.392
[3], 1000 nM | – | 0.319
[3], 3000 nM | – | 0.212
[4], 4.1 nM | – | 0.886
[4], 12.3 nM | – | 0.765
[4], 37 nM | – | 0.518
[4], 111.1 nM | – | 0.31
[4], 333.3 nM | – | 0.371
[4], 1000 nM | – | 0.338
[4], 3000 nM | – | 0.216
[5], 4.1 nM | – | 0.75
[5], 12.3 nM | – | 0.634
[5], 37 nM | – | 0.521
[5], 111.1 nM | – | 0.586
[5], 333.3 nM | – | 0.555
[5], 1000 nM | – | 0.519
[5], 3000 nM | – | 0.411
[6], 4.1 nM | – | 0.876
[6], 12.3 nM | – | 0.876
[6], 37 nM | – | 0.767
[6], 111.1 nM | – | 0.426
[6], 333.3 nM | – | 0.291
[6], 1000 nM | – | 0.266
[6], 3000 nM | – | 0.21
[7], 4.1 nM | – | 0.771
[7], 12.3 nM | – | 0.707
[7], 37 nM | – | 0.742
[7], 111.1 nM | – | 0.753
[7], 333.3 nM | – | 0.59
[7], 1000 nM | – | 0.473
[7], 3000 nM | – | 0.449
[8], 4.1 nM | 1.34 | –
[8], 12.3 nM | 4.24 | –
[8], 37 nM | 1.9 | –
[8], 111.1 nM | 2.21 | –
[8], 333.3 nM | 3.13 | –
[8], 1000 nM | 5.26 | –
[8], 3000 nM | 5.24 | –
[9], 4.1 nM | 2.03 | –
[9], 12.3 nM | 1.85 | –
[9], 37 nM | 1.83 | –
[9], 111.1 nM | 3.51 | –
[9], 333.3 nM | 2.93 | –
[9], 1000 nM | 3.58 | –
[9], 3000 nM | 4.29 | –
[10], 4.1 nM | 0.894 | –
[10], 12.3 nM | 0.602 | –
[10], 37 nM | 0.781 | –
[10], 111.1 nM | 1.28 | –
[10], 333.3 nM | 2.53 | –
[10], 1000 nM | 2.98 | –
[10], 3000 nM | 3.16 | –
[11], 4.1 nM | 1.12 | –
[11], 12.3 nM | 1.08 | –
[11], 37 nM | 2.15 | –
[11], 111.1 nM | 2.63 | –
[11], 333.3 nM | 2.78 | –
[11], 1000 nM | 3.14 | –
[11], 3000 nM | 4.34 | –
[12], 4.1 nM | 1.01 | –
[12], 12.3 nM | 1.55 | –
[12], 37 nM | 1.65 | –
[12], 111.1 nM | 2.16 | –
[12], 333.3 nM | 1.7 | –
[12], 1000 nM | 3.29 | –
[12], 3000 nM | 4.68 | –
[13], 4.1 nM | 1.31 | –
[13], 12.3 nM | 1.36 | –
[13], 37 nM | 1.73 | –
[13], 111.1 nM | 4.12 | –
[13], 333.3 nM | 6.27 | –
[13], 1000 nM | 6.54 | –
[13], 3000 nM | 7.74 | –
[14], 4.1 nM | 1.56 | –
[14], 12.3 nM | 1.64 | –
[14], 37 nM | 1.95 | –
[14], 111.1 nM | 1.56 | –
[14], 333.3 nM | 2.13 | –
[14], 1000 nM | 2.73 | –
[14], 3000 nM | 2.8 | –

CC(=O)O[C@@]12CO[C@@H]1C[C@H](O)[C@@]1(C)C(=O)[C@H](O)C3=C(C)[C@@H](OC(=O)[C@H](O)[C@@H](NC(=O)OC(C)(C)C)c4ccccc4)C[C@@](O)([C@@H](OC(=O)c4ccccc4)[C@H]21)C3(C)C [Docetaxel]
Conditions | phenotypic distance | surviving fraction
[1], 4.1 nM | – | 0.244
[1], 12.3 nM | – | 0.245
[1], 37 nM | – | 0.23
[1], 111.1 nM | – | 0.267
[1], 333.3 nM | – | 0.26
[1], 1000 nM | – | 0.245
[1], 3000 nM | – | 0.233
[2], 4.1 nM | – | 0.256
[2], 12.3 nM | – | 0.291
[2], 37 nM | – | 0.273
[2], 111.1 nM | – | 0.267
[2], 333.3 nM | – | 0.324
[2], 1000 nM | – | 0.366
[2], 3000 nM | – | 0.306
[3], 4.1 nM | – | 0.337
[3], 12.3 nM | – | 0.342
[3], 37 nM | – | 0.315
[3], 111.1 nM | – | 0.374
[3], 333.3 nM | – | 0.359
[3], 1000 nM | – | 0.377
[3], 3000 nM | – | 0.43
[4], 4.1 nM | – | 0.175
[4], 12.3 nM | – | 0.112
[4], 37 nM | – | 0.146
[4], 111.1 nM | – | 0.157
[4], 333.3 nM | – | 0.134
[4], 1000 nM | – | 0.164
[4], 3000 nM | – | 0.2
[5], 4.1 nM | – | 0.43
[5], 12.3 nM | – | 0.452
[5], 37 nM | – | 0.497
[5], 111.1 nM | – | 0.38
[5], 333.3 nM | – | 0.438
[5], 1000 nM | – | 0.423
[5], 3000 nM | – | 0.551
[6], 4.1 nM | – | 0.0834
[6], 12.3 nM | – | 0.0809
[6], 37 nM | – | 0.078
[6], 111.1 nM | – | 0.0677
[6], 333.3 nM | – | 0.0873
[6], 1000 nM | – | 0.0902
[6], 3000 nM | – | 0.109
[7], 4.1 nM | – | 0.529
[7], 12.3 nM | – | 0.614
[7], 37 nM | – | 0.452
[7], 111.1 nM | – | 0.513
[7], 333.3 nM | – | 0.572
[7], 1000 nM | – | 0.497
[7], 3000 nM | – | 0.556
[8], 4.1 nM | 5.48 | –
[8], 12.3 nM | 5.06 | –
[8], 37 nM | 5.13 | –
[8], 111.1 nM | 5.06 | –
[8], 333.3 nM | 5.38 | –
[8], 1000 nM | 5.66 | –
[8], 3000 nM | 5.29 | –
[9], 4.1 nM | 5.81 | –
[9], 12.3 nM | 6.42 | –
[9], 37 nM | 6.23 | –
[9], 111.1 nM | 6.28 | –
[9], 333.3 nM | 6.05 | –
[9], 1000 nM | 6.55 | –
[9], 3000 nM | 6.95 | –
[10], 4.1 nM | 3.2 | –
[10], 12.3 nM | 3.04 | –
[10], 37 nM | 3.71 | –
[10], 111.1 nM | 4 | –
[10], 333.3 nM | 4.1 | –
[10], 1000 nM | 3.51 | –
[10], 3000 nM | 3.95 | –
[11], 4.1 nM | 3.61 | –
[11], 12.3 nM | 4.17 | –
[11], 37 nM | 4.04 | –
[11], 111.1 nM | 3.51 | –
[11], 333.3 nM | 4.45 | –
[11], 1000 nM | 4.14 | –
[11], 3000 nM | 3.26 | –
[12], 4.1 nM | 4.14 | –
[12], 12.3 nM | 3.76 | –
[12], 37 nM | 3.17 | –
[12], 111.1 nM | 3.96 | –
[12], 333.3 nM | 3.99 | –
[12], 1000 nM | 3.89 | –
[12], 3000 nM | 3.75 | –
[13], 4.1 nM | 5.76 | –
[13], 12.3 nM | 5.68 | –
[13], 37 nM | 5.22 | –
[13], 111.1 nM | 5.42 | –
[13], 333.3 nM | 5.4 | –
[13], 1000 nM | 5.4 | –
[13], 3000 nM | 5.26 | –
[14], 4.1 nM | 4.07 | –
[14], 12.3 nM | 4.02 | –
[14], 37 nM | 3.93 | –
[14], 111.1 nM | 4.46 | –
[14], 333.3 nM | 4.18 | –
[14], 1000 nM | 4.11 | –
[14], 3000 nM | 4.57 | –

From the supplement of paper PMC13207355
